Assay results published in patent US8519110B2, “mRNA cap analogs” (Board of Supervisors of Louisiana State University And …, priority 2008, dated 2013).

Assays:
eIF4E = eIF4E (Mus musculus, UniProt P63073); test: Binding affinity of cap analogs to eIF4E by fluorescence titration; conditions: equilibrium association constant; for Cap analog/eIF4E affinity (KAS): 20 °C, pH 7.2, ionic strength 150 mM
Experimental: Fluorescence titration measurements were carried out on an LS-50B or LS-55 spectrofluorometer (Perkin Elmer Co.) at 20.0±0.2° C. in 50 mM HEPES/KOH (pH 7.2), 0.5 mM EDTA, and 1 mM DTT, with ionic strength adjusted to 150 mM by addition of KCl. Various cap analogue solutions, of increasing concentration, were added in 1 μl aliquots to 1.4 ml of 0.1 or 0.2 μM protein solutions. Fluorescence intensities were measured with excitation at 280 nm or 295 nm with 2.2 nm bandwidth, and detection at 337 nm with 4 nm bandwidth and a 290-nm cut-off filter. The data were corrected for sample dilution and inner filter effects. Equilibrium association constants (Kas) were determined by fitting the theoretical dependence of fluorescence intensity on cap analog concentration to the experimental data, as otherwise described in A. Niedźwiecka et al., “Biophysical studies of eIF4E cap-binding protein: recognition of mRNA 5′ cap structure and synthetic fragments of eIF4G and 4E-BP1 proteins,” J. Mol. Biol., vol. 312, pp. 615-635 (2002). The concentration of protein was allowed to be a free parameter in the equilibrium equation, to determine the amount of “active” protein. The final Kas was calculated as a weighted average of three to ten independent titrations, with the weights taken as the reciprocals of the squares of the numerical standard deviations. Numerical nonlinear least-square regression analysis was performed using ORGIN 6.0 (Microcal Software Inc., USA).
The binding affinities of eukaryotic eIF4E for various cap analogs were determined by fluorescence quenching. This biophysical test allows one to predict the potential efficacy of cap analogs in translation. Those having higher affinities for eIF4E than the unmodified cap analog (m^7GpppG) are expected to be better recognized by the translational machinery, leading to higher translational efficiencies. They also are expected to compete more effectively with unmodified mRNA when free cap dinucleotides are used to inhibit translation. See generally E. Grudzien-Nogalska et al., “Synthesis of anti-reverse cap analogs (ARCAs) and their applications in mRNA translation and stability,” Methods Enzymol., vol. 431, pp. 203-227 (2007).

Human DcpS = molecular target: T1, Human DcpS (Homo sapiens, UniProt Q96C86); test: Assay of susceptibility to DcpS (RP HPLC); format: biochemical
T1 construct: made in house; host or cells: Escherichia coli
T1 sequence (Q96C86 1-337): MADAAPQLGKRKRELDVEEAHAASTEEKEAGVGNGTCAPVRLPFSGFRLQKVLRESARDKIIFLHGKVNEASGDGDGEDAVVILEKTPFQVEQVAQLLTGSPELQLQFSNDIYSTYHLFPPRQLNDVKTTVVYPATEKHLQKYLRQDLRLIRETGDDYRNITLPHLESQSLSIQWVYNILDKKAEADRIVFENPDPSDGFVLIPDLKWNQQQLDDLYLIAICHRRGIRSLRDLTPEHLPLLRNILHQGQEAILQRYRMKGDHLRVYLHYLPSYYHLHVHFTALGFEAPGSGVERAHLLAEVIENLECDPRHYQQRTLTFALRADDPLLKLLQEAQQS
Experimental: Human DcpS was expressed in Escherichia coli as described in L. Cohen et al., “Nematode m^7GpppG and m3^2,2,7GpppG decapping: activities in Ascaris embryos and characterization of C. elegans scavenger DcpS,” RNA, vol. 10, pp. 1609-1624 (2004). A 15 μM solution of the protein in 20 mM Tris buffer, pH 7.5, containing 50 mM KCl, 0.2 mM EDTA, 1 mM DTT, 0.5 mM PMSF, and 20% glycerol was stored at −80° C. until used. Enzymatic reactions were carried out at 30° C. in 500 μl of 50 mM Tris-HCl, pH 7.9, containing 20 mM MgCl2 and 60 mM (NH4)2SO4. A 40 μM solution of the selected cap analog was treated with 5.0 μl of DcpS for 120 min. At times of 10, 30, 60, and 120 min, a 100-μl sample was collected from the reaction mixture and deactivated by incubation at 90° C. for 2 min. Samples were analyzed without further treatment by analytical RP HPLC with a linear gradient of methanol in 0.1 M KH2PO4, pH 6.0, from 0-50% over 15 min.

[1] = test system: rabbit reticulocyte lysate system; test: In vitro translation efficiency of capped luciferase mRNA with 31-base poly(A) tail, method II transcripts; format: biochemical; conditions: for Translation efficiency in comparison to m^7GpppG-LUC-(A)31 mRNA, Experiment No. 4: experiment 4; for Translation efficiency in comparison to m^7GpppG-LUC-(A)31 mRNA, Experiment No. 5: experiment 5; for Translation efficiency in comparison to m^7GpppG-LUC-(A)31 mRNA, Mean: mean of experiments
Experimental: Capped, polyadenylated luciferase mRNAs were synthesized in vitro by PCR from a dsDNA template that contained the SP6 promoter, the 5′-UTR sequence of rabbit β-globin mRNA, the entire firefly luciferase coding region, and 31 adenosine residues. A typical transcription reaction mixture (40 μl) contained SP6 transcription buffer (Fermentas), 0.7 ug of DNA template, 1 U/μl RiboLock Ribonuclease Inhibitor (Fermentas), 0.5 mM each of ATP, CTP, and UTP, 0.1 mM GTP, and 0.5 mM dinucleotide cap analog. The reaction mixture was incubated at 37° C. for 5 min before addition of SP6 RNA polymerase (Fermentas) to a final concentration of 1 U/μl, and incubation then continued for 45 min at 37° C. The reaction mixture was treated with DNase as in Method I. RNA transcripts were purified with NucAway Spin Columns (Ambion). The integrity of transcripts and quantitation was performed as in Method I.
(§1) A micrococcal nuclease-treated rabbit reticulocyte lysate system (Flexi Rabbit Reticulocyte Lysate System, Promega) was used for in vitro translation. Translation reactions were performed in 10 μl for 60 min at 30° C. A typical reaction mixture contained 40% reticulocyte lysate, the 20 “standard” amino acids (0.01 mM each), MgCl2 (1.2 mM), potassium acetate (170 mM), and mRNA (five different concentrations of each transcript, ranging from 0.25 to 4 μg/ml). Luciferase activity was measured in a luminometer (Glomax, Promega). Linear regression was used to fit the data points (luciferase activity versus concentration of mRNA transcript), and translational efficiency was defined as the slope of this line. The relative translational efficiencies of the test mRNAs were compared to that of m^7GpppG-capped luciferase mRNA, the latter being defined as 1.0.

[2] = test system: rabbit reticulocyte lysate system; test: In vitro translation efficiency of capped luciferase mRNA, method I transcripts; format: biochemical; conditions: for Translation efficiency in comparison with m^7GpppG-LUC mRNA, Experiment No. 1: experiment 1; for Translation efficiency in comparison with m^7GpppG-LUC mRNA, Experiment No. 2: experiment 2; for Translation efficiency in comparison with m^7GpppG-LUC mRNA, Experiment No. 3: experiment 3; for Translation efficiency in comparison with m^7GpppG-LUC mRNA, Mean: mean of experiments
Experimental: A DNA template for in vitro transcription was synthesized by PCR from the plasmid SP6p-5′UTR β-globin-LUCiferase. The template contained the SP6 promoter followed by the 5′-UTR sequence of rabbit β-globin mRNA and the entire firefly luciferase mRNA coding region. A typical in vitro transcription reaction mixture (50 μl) contained SP6 transcription buffer (Fermentas, cat. no. EP0131), 2 μg of DNA template, 2 U/μl RiboLock Ribonuclease Inhibitor (Fermentas), 2 mM each of ATP, CTP, and UTP, 0.1 mM GTP, and 1 mM dinucleotide cap analog. The reaction mixture was incubated at 37° C. for 5 min before the addition of SP6 RNA polymerase (Fermentas) to a final concentration of 2 U/μl. After 30 min of incubation at 37° C., GTP was added to a final concentration of 1 mM, and the reaction continued for an additional 90 min. The reaction mixtures were then treated with 1 U of DNase RQ1 (RNAse-free, Promega) per μg of template DNA in transcription buffer at 37° C. for 20 min. RNA transcripts were purified on DEPC-treated Sephadex G-50 spin columns (Pharmacia). The integrity of transcripts was confirmed by electrophoresis on a non-denaturating, 1% agarose gel. Concentrations were determined spectrophotometrically. The transcripts were stored at −80° C. until used.
as §1

[3] = 40 μM cap analog, 30° C., up to 120 min

eIF4E, sequence (P63073 28-217 limits assumed): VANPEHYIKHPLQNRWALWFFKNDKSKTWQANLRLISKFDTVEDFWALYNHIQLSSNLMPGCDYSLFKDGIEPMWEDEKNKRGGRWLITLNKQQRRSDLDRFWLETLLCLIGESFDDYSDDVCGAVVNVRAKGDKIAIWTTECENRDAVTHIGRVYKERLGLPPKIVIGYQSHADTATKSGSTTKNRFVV

SMILES	Cap analog/eIF4E affinity (KAS) (eIF4E)	Susceptibility to DcpS (Human DcpS; [3])	Susceptibility to DcpS (Human DcpS; Table 3)	Translation efficiency in comparison to m^7GpppG-LUC-(A)31 mRNA, Experiment No. 4 [1]	Translation efficiency in comparison to m^7GpppG-LUC-(A)31 mRNA, Experiment No. 5 [1]	Translation efficiency in comparison to m^7GpppG-LUC-(A)31 mRNA, Mean [1]	also measured
CO[C@@H]1[C@H](O)[C@@H](COP(=O)(O)OP(=O)([O-])OP(=O)(O)OC[C@H]2O[C@@H](n3cnc4c(=O)[nH]c(N)nc43)[C@H](O)[C@@H]2O)O[C@H]1n1c[n+](C)c2c(O)nc(N)nc21 [m2^7,2′-OGpppG, reference compound]	10.8 ± 0.3 μM^−1	hydrolyzed	hydrolyzed				Cap analog-eIF4E affinity (KAS) (eIF4E; Table 3): 10.8 ± 0.3 μM^−1
CO[C@@H]1[C@H](O)[C@@H](COP(=O)([O-])OP(O)(=S)OP(=O)(O)OC[C@H]2O[C@@H](n3cnc4c(=O)[nH]c(N)nc43)[C@H](O)[C@@H]2O)O[C@H]1[n+]1cn(C)c2c(=O)[nH]c(N)nc21 (single isomer, unassigned) [m2^7,2′-OGppSpG (D2), m2^7,2′-OGppSpG, reference compound]				3.20	3.02	3.11	
C[n+]1cn(C2OC(COP(O)(=[Se])OP(=O)([O-])OP(=O)(O)OCC3OC(n4cnc5c(=O)[nH]c(N)nc54)C(O)C3O)C(O)C2O)c2nc(N)[nH]c(=O)c21 (single isomer, unassigned) [m^7GpSeppG (D2), m^7GpSeppG]			resistant				
C[n+]1cn([C@@H]2O[C@H](COP(=O)(O)OP(=O)(O)OP(=O)(O)OC[C@H]3O[C@@H](n4c[n+](C)c5c(=O)[nH]c(N)nc54)[C@H](O)[C@@H]3O)[C@@H](O)[C@H]2O)c2nc(N)[nH]c(=O)c21 [m^7Gpppm^7G, reference compound]	5.0 ± 0.2 μM^−1	hydrolyzed					
[BH3-]P(=O)(OP(=O)(O)OCC1OC(n2cnc3c(=O)[nH]c(N)nc32)C(O)C1O)OP(=O)(O)OCC1OC(n2c[n+](C)c3c(=O)[nH]c(N)nc32)C(OC)C1O (single isomer, unassigned) [m2^7,2′-OGppBH3pG (D1), m2^7,2′-OGppBH3pG]	39.4 ± 1.2 μM^−1	resistant		1.87	3.44	2.66	
CO[C@@H]1[C@H](O)[C@@H](COP(=O)([O-])OP(O)(=S)OP(=O)(O)OC[C@H]2O[C@@H](n3cnc4c(=O)[nH]c(N)nc43)[C@H](O)[C@@H]2O)O[C@H]1[n+]1cn(C)c2c(=O)[nH]c(N)nc21 (single isomer, unassigned) [m2^7,2′-OGppSpG (D1), m2^7,2′-OGppSpG, reference compound]				2.92	2.83	2.88	
C[n+]1cn(C2OC(COP(O)(=[Se])OP(=O)([O-])OP(=O)(O)OCC3OC(n4cnc5c(=O)[nH]c(N)nc54)C(O)C3O)C(O)C2O)c2nc(N)[nH]c(=O)c21 (single isomer, unassigned) [m^7GpSeppG (D1), m^7GpSeppG]			resistant				
Nc1nc2c(ncn2[C@@H]2O[C@H](COP(=O)(O)OP(=O)(O)OP(=O)(O)OC[C@H]3O[C@@H](n4cnc5c(N)ncnc54)[C@H](O)[C@@H]3O)[C@@H](O)[C@H]2O)c(=O)[nH]1 [ApppG, reference compound]				0.19	0.18	0.19	Translation efficiency in comparison with m^7GpppG-LUC mRNA, Experiment No. 1 [2]: 0.34; Translation efficiency in comparison with m^7GpppG-LUC mRNA, Experiment No. 2 [2]: 0.55; Translation efficiency in comparison with m^7GpppG-LUC mRNA, Experiment No. 3 [2]: 0.53; Translation efficiency in comparison with m^7GpppG-LUC mRNA, Experiment No. 4 ([2]; experiment 4): 0.48; Translation efficiency in comparison with m^7GpppG-LUC mRNA, Mean [2]: 0.48; Translation efficiency in comparison to m^7GpppG-LUC-(A)31 mRNA, Experiment No. 1 ([1]; experiment 1): 0.27; Translation efficiency in comparison to m^7GpppG-LUC-(A)31 mRNA, Experiment No. 2 ([1]; experiment 2): 0.16; Translation efficiency in comparison to m^7GpppG-LUC-(A)31 mRNA, Experiment No. 3 ([1]; experiment 3): 0.14
[BH3-]P(=O)(OP(=O)(O)OCC1OC(n2cnc3c(=O)[nH]c(N)nc32)C(O)C1O)OP(=O)(O)OCC1OC(n2c[n+](C)c3c(=O)[nH]c(N)nc32)C(O)C1O (mixture of isomers) [m^7GppBH3pG]							Translation efficiency in comparison with m^7GpppG-LUC mRNA, Experiment No. 1 [2]: 1.66; Translation efficiency in comparison with m^7GpppG-LUC mRNA, Experiment No. 2 [2]: 1.42; Translation efficiency in comparison with m^7GpppG-LUC mRNA, Experiment No. 3 [2]: 1.14; Translation efficiency in comparison with m^7GpppG-LUC mRNA, Mean [2]: 1.41; In vitro translational efficiency, method I ([2]; relative to m^7GpppG-capped luciferase mRNA = 1.0): 1.41 ± 0.26
